According to ChEMBL document CHEMBL3991601, “The target landscape of clinical kinase drugs” (Science, 2017):
Activity calls are given as the source filed them.

Key:
[1] = target: DNA topoisomerase 2-alpha (Homo sapiens, UniProt P11388)
[2] = target: T1, Serine/threonine-protein kinase A-Raf (Homo sapiens, UniProt P10398)
T1 sequence (P10398 whole entry): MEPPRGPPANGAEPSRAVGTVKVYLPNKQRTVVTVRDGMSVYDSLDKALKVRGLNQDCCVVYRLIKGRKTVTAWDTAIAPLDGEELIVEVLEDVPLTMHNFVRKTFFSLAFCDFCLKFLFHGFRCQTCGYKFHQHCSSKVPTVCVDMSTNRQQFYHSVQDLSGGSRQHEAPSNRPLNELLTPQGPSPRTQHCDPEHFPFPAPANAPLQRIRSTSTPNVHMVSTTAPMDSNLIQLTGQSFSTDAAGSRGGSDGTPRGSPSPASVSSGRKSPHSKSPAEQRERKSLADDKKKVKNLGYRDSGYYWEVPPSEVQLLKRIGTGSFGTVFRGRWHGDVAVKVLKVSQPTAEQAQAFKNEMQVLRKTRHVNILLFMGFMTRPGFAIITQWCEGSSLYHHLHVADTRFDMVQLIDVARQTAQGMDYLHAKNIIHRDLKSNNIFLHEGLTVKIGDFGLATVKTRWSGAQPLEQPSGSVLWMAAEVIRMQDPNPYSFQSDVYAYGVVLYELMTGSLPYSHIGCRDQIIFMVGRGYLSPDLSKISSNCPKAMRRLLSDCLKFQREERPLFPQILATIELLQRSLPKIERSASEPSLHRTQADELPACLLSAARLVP

[3] = target: T2, Beta-adrenergic receptor kinase 1 (Homo sapiens, UniProt P25098)
T2 sequence (P25098 whole entry): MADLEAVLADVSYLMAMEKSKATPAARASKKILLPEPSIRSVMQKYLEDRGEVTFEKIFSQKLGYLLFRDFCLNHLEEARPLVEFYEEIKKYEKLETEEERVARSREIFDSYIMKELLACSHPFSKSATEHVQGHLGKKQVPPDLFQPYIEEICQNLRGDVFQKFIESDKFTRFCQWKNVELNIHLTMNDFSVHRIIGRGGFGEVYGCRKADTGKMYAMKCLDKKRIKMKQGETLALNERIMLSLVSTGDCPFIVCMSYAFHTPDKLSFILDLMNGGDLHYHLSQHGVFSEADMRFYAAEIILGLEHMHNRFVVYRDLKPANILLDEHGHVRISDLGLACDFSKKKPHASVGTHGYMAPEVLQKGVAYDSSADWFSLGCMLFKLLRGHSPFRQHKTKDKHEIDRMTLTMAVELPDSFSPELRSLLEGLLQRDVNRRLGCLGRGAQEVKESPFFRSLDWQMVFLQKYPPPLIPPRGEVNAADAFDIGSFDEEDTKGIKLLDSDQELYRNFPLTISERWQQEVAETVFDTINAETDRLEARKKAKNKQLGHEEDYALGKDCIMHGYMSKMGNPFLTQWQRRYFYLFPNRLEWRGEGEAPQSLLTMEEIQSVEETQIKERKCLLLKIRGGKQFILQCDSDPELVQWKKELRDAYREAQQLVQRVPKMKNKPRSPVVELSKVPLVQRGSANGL

[4] = target: 5'-AMP-activated protein kinase catalytic subunit alpha-1 (Homo sapiens, UniProt Q13131)
Sequence of 5'-AMP-activated protein kinase catalytic subunit alpha-1 (Q13131 whole entry): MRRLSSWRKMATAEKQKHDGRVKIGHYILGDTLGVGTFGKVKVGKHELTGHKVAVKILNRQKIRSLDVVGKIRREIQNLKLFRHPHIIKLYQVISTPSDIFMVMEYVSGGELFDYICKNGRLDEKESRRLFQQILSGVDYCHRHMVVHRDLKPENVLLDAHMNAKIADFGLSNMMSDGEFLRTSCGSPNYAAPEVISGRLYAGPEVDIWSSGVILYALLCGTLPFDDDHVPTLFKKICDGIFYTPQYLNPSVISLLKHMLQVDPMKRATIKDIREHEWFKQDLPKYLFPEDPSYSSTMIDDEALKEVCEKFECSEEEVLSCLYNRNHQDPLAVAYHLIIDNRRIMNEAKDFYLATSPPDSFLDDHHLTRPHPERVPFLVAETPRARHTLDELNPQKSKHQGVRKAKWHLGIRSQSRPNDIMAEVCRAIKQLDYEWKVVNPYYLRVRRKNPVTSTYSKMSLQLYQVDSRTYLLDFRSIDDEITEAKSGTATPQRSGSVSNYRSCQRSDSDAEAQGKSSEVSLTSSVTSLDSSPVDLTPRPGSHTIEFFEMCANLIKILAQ

[5] = target: T3, Structural maintenance of chromosomes protein 1A (Homo sapiens, UniProt Q14683)
T3 sequence (Q14683 whole entry): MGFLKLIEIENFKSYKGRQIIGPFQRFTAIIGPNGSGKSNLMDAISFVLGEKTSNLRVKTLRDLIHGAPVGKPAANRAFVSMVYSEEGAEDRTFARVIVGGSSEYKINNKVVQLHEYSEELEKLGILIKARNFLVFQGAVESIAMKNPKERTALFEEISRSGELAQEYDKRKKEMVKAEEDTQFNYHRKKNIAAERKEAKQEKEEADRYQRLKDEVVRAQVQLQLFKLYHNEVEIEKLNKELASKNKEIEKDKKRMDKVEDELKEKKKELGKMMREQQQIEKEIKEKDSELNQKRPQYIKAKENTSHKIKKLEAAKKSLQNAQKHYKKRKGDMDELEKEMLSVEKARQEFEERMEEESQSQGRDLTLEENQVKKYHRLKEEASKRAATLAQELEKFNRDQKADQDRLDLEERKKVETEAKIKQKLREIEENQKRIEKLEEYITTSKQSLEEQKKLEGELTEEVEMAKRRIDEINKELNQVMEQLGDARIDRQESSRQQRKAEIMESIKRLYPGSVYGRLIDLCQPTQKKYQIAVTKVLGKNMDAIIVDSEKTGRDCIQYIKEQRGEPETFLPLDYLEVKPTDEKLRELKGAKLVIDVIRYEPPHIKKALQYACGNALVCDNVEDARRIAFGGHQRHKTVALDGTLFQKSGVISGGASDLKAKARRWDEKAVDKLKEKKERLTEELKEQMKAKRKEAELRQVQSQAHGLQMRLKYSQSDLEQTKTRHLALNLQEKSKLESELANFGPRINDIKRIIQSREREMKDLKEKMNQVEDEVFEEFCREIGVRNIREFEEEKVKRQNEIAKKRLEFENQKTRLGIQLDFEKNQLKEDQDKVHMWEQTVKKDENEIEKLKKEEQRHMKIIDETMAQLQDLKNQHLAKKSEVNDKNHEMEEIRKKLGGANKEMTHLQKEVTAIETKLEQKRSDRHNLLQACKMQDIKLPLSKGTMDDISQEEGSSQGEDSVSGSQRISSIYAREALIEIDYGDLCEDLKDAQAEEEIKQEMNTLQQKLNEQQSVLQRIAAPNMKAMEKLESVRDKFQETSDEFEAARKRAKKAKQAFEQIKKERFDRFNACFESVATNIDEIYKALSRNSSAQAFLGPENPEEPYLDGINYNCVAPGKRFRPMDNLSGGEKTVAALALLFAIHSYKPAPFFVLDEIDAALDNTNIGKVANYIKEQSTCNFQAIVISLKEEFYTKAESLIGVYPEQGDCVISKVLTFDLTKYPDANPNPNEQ

[6] = target: Ribosomal protein S6 kinase alpha-3 (Homo sapiens, UniProt P51812)
Sequence of Ribosomal protein S6 kinase alpha-3 (P51812 whole entry): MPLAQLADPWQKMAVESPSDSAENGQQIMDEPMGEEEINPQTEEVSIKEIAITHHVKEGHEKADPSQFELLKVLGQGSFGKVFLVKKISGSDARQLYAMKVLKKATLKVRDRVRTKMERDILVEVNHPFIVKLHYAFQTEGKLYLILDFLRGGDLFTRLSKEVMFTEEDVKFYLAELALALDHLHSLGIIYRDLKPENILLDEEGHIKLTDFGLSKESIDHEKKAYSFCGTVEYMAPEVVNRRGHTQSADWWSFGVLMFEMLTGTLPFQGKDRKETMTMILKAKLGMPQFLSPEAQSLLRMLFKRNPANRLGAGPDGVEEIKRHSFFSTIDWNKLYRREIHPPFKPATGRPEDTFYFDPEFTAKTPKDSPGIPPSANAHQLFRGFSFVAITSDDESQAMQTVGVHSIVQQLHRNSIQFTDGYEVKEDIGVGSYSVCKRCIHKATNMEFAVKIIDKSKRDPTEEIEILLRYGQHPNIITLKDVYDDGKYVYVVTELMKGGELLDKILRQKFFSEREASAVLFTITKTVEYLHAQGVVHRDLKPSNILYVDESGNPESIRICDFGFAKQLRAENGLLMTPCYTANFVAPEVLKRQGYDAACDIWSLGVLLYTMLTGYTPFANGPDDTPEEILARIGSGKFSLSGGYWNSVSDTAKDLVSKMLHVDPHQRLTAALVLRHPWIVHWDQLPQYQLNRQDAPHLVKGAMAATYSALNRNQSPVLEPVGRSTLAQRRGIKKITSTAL

[7] = target: Tyrosine-protein kinase ABL2 (Homo sapiens, UniProt P42684)
[8] = target: Fibroblast growth factor receptor 1 (Homo sapiens, UniProt P11362)
Sequence of Fibroblast growth factor receptor 1 (P11362 whole entry): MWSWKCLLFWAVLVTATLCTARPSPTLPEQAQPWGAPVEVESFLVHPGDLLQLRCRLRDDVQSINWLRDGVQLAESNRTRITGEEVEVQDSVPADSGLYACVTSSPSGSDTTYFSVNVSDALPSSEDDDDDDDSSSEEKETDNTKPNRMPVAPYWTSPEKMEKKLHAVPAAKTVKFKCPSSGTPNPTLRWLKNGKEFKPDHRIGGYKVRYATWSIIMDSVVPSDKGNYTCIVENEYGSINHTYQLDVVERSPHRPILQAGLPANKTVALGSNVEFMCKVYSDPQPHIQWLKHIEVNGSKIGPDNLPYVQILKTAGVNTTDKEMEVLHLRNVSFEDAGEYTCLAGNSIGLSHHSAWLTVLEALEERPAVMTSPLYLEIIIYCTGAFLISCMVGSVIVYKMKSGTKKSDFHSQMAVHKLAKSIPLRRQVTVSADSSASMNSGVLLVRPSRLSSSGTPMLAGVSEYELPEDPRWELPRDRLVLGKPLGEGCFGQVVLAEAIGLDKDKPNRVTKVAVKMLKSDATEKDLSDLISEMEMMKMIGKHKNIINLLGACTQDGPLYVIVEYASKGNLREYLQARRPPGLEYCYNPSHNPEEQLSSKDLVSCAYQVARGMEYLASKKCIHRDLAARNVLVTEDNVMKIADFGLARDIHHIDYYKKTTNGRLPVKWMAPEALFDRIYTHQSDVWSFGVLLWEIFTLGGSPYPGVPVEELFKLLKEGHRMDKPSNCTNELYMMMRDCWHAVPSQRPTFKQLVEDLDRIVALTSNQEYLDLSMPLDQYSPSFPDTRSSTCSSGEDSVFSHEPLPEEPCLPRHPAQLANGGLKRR

[9] = target: Serine/threonine-protein kinase/endoribonuclease IRE2 (Homo sapiens, UniProt Q76MJ5)
Sequence of Serine/threonine-protein kinase/endoribonuclease IRE2 (Q76MJ5 whole entry): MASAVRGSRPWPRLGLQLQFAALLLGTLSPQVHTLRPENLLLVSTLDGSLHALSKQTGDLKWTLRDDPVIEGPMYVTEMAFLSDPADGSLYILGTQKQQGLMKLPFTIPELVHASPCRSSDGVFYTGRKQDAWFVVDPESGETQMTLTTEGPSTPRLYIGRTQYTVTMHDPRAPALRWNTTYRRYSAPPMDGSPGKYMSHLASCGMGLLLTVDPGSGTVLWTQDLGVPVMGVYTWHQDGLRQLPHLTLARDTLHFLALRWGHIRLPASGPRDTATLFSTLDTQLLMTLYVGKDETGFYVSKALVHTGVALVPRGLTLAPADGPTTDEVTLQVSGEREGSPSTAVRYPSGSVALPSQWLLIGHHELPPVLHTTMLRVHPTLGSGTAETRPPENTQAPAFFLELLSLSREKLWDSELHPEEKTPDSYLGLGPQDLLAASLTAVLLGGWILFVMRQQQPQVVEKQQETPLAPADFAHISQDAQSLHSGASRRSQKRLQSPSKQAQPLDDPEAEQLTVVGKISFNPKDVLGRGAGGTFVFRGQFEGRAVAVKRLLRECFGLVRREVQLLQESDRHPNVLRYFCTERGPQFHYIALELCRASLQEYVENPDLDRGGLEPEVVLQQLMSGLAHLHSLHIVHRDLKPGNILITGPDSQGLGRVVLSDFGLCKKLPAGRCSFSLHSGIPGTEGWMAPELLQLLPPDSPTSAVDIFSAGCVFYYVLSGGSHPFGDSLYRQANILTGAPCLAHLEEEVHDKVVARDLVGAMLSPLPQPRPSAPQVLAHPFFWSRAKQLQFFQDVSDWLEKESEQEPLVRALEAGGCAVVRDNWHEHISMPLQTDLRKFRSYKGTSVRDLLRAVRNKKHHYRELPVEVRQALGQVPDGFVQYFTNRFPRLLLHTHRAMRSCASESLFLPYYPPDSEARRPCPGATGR
Note: in the data inactive means no Kd found up to 30 µM.

Sequence of DNA topoisomerase 2-alpha (P11388 whole entry): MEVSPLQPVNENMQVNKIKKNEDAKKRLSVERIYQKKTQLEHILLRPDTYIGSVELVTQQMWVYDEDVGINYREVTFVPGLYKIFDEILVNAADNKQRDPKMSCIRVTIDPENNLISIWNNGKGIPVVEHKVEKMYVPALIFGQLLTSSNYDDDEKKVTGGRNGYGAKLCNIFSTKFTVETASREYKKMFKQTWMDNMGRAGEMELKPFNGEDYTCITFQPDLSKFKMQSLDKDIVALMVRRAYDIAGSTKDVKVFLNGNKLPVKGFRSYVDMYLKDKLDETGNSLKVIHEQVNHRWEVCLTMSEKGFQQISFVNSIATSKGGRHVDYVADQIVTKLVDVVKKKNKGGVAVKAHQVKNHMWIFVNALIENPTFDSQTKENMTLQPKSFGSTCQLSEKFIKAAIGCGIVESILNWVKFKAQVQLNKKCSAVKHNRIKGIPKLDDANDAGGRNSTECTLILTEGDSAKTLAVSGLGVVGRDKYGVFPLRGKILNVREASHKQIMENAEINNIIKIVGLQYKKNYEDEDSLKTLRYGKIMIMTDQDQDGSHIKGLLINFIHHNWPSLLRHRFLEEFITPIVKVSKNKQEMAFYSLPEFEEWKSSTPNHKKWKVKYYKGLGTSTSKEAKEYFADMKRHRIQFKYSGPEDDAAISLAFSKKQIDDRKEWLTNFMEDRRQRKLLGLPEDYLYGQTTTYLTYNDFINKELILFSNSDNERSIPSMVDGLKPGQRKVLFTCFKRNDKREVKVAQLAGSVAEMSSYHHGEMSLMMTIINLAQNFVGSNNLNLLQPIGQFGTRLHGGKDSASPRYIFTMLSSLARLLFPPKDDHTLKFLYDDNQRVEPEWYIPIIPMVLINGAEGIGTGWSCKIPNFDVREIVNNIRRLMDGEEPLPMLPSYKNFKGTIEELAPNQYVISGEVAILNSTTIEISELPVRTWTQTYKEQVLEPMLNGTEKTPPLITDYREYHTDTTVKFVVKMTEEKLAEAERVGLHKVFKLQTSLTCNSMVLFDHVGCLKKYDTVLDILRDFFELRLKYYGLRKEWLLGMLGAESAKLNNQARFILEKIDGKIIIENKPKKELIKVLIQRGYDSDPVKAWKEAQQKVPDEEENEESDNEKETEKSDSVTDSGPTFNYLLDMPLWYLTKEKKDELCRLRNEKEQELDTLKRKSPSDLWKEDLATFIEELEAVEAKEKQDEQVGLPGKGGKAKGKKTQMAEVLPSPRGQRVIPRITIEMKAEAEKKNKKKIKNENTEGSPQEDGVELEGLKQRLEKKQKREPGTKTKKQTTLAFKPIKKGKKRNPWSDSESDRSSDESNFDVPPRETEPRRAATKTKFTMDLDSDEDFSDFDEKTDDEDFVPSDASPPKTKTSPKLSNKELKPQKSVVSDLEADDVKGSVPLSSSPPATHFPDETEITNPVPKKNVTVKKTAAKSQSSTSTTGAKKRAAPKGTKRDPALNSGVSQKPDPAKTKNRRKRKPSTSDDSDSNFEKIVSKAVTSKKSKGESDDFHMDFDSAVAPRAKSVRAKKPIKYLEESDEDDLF

Row | Kd [1] | Kd [2] | Kd [3] | Kd [4] | Kd [5] | Kd [6] | Kd [7] | Kd [8] | Kd [9] | SMILES
1 | > 30 µM (inactive) | > 30 µM (inactive) | > 30 µM (inactive) | > 30 µM (inactive) | > 30 µM (inactive) | > 30 µM (inactive) | > 30 µM (inactive) | > 30 µM (inactive) | > 30 µM (inactive) | CN(C)C(=O)c1cc2cnc(Nc3ccc(N4CCNCC4)cn3)nc2n1C1CCCC1 [RIBOCICLIB]
2 | > 30 µM (inactive) | > 30 µM (inactive) | > 30 µM (inactive) | > 30 µM (inactive) | > 30 µM (inactive) | > 30 µM (inactive) | > 30 µM (inactive) | > 30 µM (inactive) | > 30 µM (inactive) | COc1cc(OC)c(/C=C/S(=O)(=O)Cc2ccc(OC)c(NCC(=O)O)c2)c(OC)c1 [RIGOSERTIB]
3 | > 30 µM (inactive) | > 30 µM (inactive) | > 30 µM (inactive) | > 30 µM (inactive) | > 30 µM (inactive) | > 30 µM (inactive) | > 30 µM (inactive) | > 30 µM (inactive) | > 30 µM (inactive) | C[C@@H](c1ccc2nccn2c1)n1nnc2ncc(-c3cnn(C)c3)nc21 [SAVOLITINIB]
4 | > 30 µM (inactive) | > 30 µM (inactive) | > 30 µM (inactive) | > 30 µM (inactive) | > 30 µM (inactive) | > 30 µM (inactive) | > 30 µM (inactive) | > 30 µM (inactive) | > 30 µM (inactive) | CN1CCC(CNc2ccc3ncc(-c4cccc(OC(F)(F)F)c4)n3n2)CC1 [SGI-1776]
5 | > 30 µM (inactive) | > 30 µM (inactive) | > 30 µM (inactive) | > 30 µM (inactive) | > 30 µM (inactive) | > 30 µM (inactive) | > 30 µM (inactive) | > 30 µM (inactive) | > 30 µM (inactive) | O=c1sn(-c2cccc3ccccc23)c(=O)n1Cc1ccccc1 [TIDEGLUSIB]
6 | > 30 µM (inactive) | > 30 µM (inactive) | > 30 µM (inactive) | > 30 µM (inactive) | > 30 µM (inactive) | > 30 µM (inactive) | > 30 µM (inactive) | > 30 µM (inactive) | > 30 µM (inactive) | CC(=O)Nc1cccc(-n2c(=O)n(C3CC3)c(=O)c3c(Nc4ccc(I)cc4F)n(C)c(=O)c(C)c32)c1 [TRAMETINIB]
7 | > 30 µM (inactive) | > 30 µM (inactive) | > 30 µM (inactive) | > 30 µM (inactive) | > 30 µM (inactive) | > 30 µM (inactive) | > 30 µM (inactive) | > 30 µM (inactive) | > 30 µM (inactive) | CC(C)Nc1cc(-c2c[nH]c(C(=O)N[C@H](CO)c3cccc(Cl)c3)c2)c(Cl)cn1 [ULIXERTINIB]
8 | > 30 µM (inactive) | 2.14 µM (active) | > 30 µM (inactive) | > 30 µM (inactive) | > 30 µM (inactive) | > 30 µM (inactive) | > 30 µM (inactive) | > 30 µM (inactive) | > 30 µM (inactive) | CCCS(=O)(=O)Nc1ccc(F)c(C(=O)c2c[nH]c3ncc(-c4ccc(Cl)cc4)cc23)c1F [VEMURAFENIB]
9 | > 30 µM (inactive) | > 30 µM (inactive) | > 30 µM (inactive) | > 30 µM (inactive) | > 30 µM (inactive) | > 30 µM (inactive) | > 30 µM (inactive) | > 30 µM (inactive) | > 30 µM (inactive) | CC[C@@H]1C(=O)N(C)c2cnc(Nc3ccc(C(=O)N[C@H]4CC[C@H](N5CCN(CC6CC6)CC5)CC4)cc3OC)nc2N1C(C)C [VOLASERTIB]
10 | > 30 µM (inactive) | > 30 µM (inactive) | > 30 µM (inactive) | > 30 µM (inactive) | > 30 µM (inactive) | > 30 µM (inactive) | > 30 µM (inactive) | > 30 µM (inactive) | > 30 µM (inactive) | CCn1c(=O)c(-c2cc[nH]n2)cc2c(C)nc(N)nc21 [VOXTALISIB]
11 | > 30 µM (inactive) | > 30 µM (inactive) | > 30 µM (inactive) | > 30 µM (inactive) | > 30 µM (inactive) | > 30 µM (inactive) | > 30 µM (inactive) | > 30 µM (inactive) | > 30 µM (inactive) | O=C(Nc1ccc(-c2ccnc(Nc3ccc(N4CCOCC4)cc3)n2)cc1)C1CCCN1 (configuration not stated) [XL-019]

Row | SMILES | Kd [1] | Kd [2] | Kd [3] | Kd [4] | Kd [5] | Kd [6] | Kd [7] | Kd [8] | Kd [9]
12 | Cc1ccc(-n2nc(C(C)(C)C)cc2NC(=O)NCc2cc(F)ccc2Oc2ccc3c(cnn3CCO)c2)cc1 [PEXMETINIB] | > 30 µM (inactive) | > 30 µM (inactive) | > 30 µM (inactive) | > 30 µM (inactive) | > 30 µM (inactive) | > 30 µM (inactive) | 0.351 µM (active) | 2.67 µM (active) | > 30 µM (inactive)
13 | C=CC(=O)N1CCC(Oc2cc3c(Nc4ccc(Cl)c(Cl)c4F)ncnc3cc2OC)CC1 [POZIOTINIB] | > 30 µM (inactive) | > 30 µM (inactive) | > 30 µM (inactive) | > 30 µM (inactive) | > 30 µM (inactive) | > 30 µM (inactive) | > 30 µM (inactive) | > 30 µM (inactive) | > 30 µM (inactive)
